Test results taken from patent US20080194546A1, “Pyrido-, Pyrazo- and Pyrimido-Pyrimidine Derivatives as mTOR Inhibitors” (KuDOS Pharmaceuticals Limited, priority 2005, published 2008).
Read-outs that look alike come from different tables or passages of the source.

Columns and labels:
[1] = tested on: T47D cells; assay: Cell Proliferation Assay (GI50), sulforhodamine B (SRB) assay; assay type: cell-based; conditions: for GI50: Homo sapiens, 120 hours, SRB
Experimental: Cell growth was assessed using the sulforhodamine B (SRB) assay (A). T47D (ECACC, 85102201) cells were routinely passaged in RPMI (Invitrogen, 42401018) plus 10% foetal calf serum (FCS), 1% L-glutamine (Gibco BRL, 25030) to a confluence not greater than 80%. To undertake the assay, T47D cells were seeded at 2.5×10^3 cells/well in […] RPMI plus 10% foetal calf serum, 1% L-glutamine in 96 well plates (Costar, 3904) and incubated at 37° C. (+5% CO2) in a humidified incubator. Once the cells had fully adhered (typically following 4-5 hours incubation) the plate was removed from the incubator and 10 μL of the diluent added to the control wells (A1-12 and B1-12). Compound was prepared in a six point semi-log dilution at 10× the final concentration required e.g. for a 6 point range of 30 μM to 100 nM in semi-log steps dilution started at 300 μM in stock plate. Dosing was completed by addition of 10 μL of compound at highest concentration to C1-12 through to the lowest concentration in H1-12. The plates were then incubated for 120 hours prior to SRB analysis.
Upon completion of incubation, media was removed and the cells fixed with […] of ice cold 10% (w/v) trichloroacetic acid. The plates were incubated at 4° C. for 20 minutes and then washed four times with water. Each well of cells was then stained with 100 μl of 0.4% (w/v) SRB (Sulforhodamine B, Sigma, Poole, Dorset, UK, Catalogue number S-9012) in 1% acetic acid for 20 minutes before washing four times with 1% acetic acid. Plates were then dried for 2 hours at room temperature. The dye from the stained cells was solubilized by the addition of 100 μl of 10 mM Tris Base into each well. Plates were gently shaken and left at room temperature for 30 minutes before measuring the optical density at 564 nm on a Microquant microtiter plate reader. The concentration of inhibitor eliciting a 50% reduction in growth (GI50) was determined by analysis of staining intensity of the treated cells as a percentage of the vehicle control wells using Excelfit software.
(A) Skehan, P., Storung, R., Scudiero, R., Monks, A., McMahon, J., Vistica, D., Warren, J. T., Bokesch, H., Kenny, S. and Boyd, M. R. (1990) New […] cytotoxicity assay for anticancer-drug screening. J. Natl. Cancer Inst. 82, 1107-1112.

[2] = target: T1, mTOR (Homo sapiens, UniProt P42345); assay: Biological Assay: mTOR enzyme activity, mTOR immunoprecipitated from HeLa cell cytoplasmic extract, recombinant PHAS-1 as substrate; assay type: biochemical
T1 construct: mTOR protein was isolated from HeLa cell cytoplasmic extract by immunoprecipitation; endogenous in cells; host or cells: HeLa cell cytoplasmic extract (immunoprecipitate)
Excerpt: For mTOR enzyme activity assays, mTOR protein was isolated from HeLa cell cytoplasmic extract by immunoprecipitation, and activity determined essentially as described previously using recombinant PHAS-1 as a substrate (ref. 21).

[3] = target: recombinant mTOR (FLAG-tagged, amino acid residues 1362 to 2549) (Homo sapiens, UniProt P42345); assay: Alternative Enzyme Assay: AlphaScreen, inhibition of phosphorylation by recombinant mTOR; assay type: biochemical
[4] = tested on: phosphorylation of Serine 473 in Akt in MDA-MB-468 cells; assay: In Vitro phospho-Ser473 Akt Assay (Acumen Explorer); assay type: cell-based; conditions: Homo sapiens, MDA-MB-468 cells
[5] = Biological Assay, upper bounds, read-out: IC50 values against mTOR
[6] = Alternative Enzyme Assay, read-out: IC50 values against mTOR
[7] = 2 hours, read-out: IC50, phospho-Ser473 Akt assay (cellular IC50, measured by pAkt)
[8] = Alternative Enzyme Assay, upper bounds, read-out: IC50 values against mTOR
[9] = compounds of Formula I(B), read-out: IC50 values against mTOR (phospho-Ser473 Akt assay)
[10] = mTOR from HeLa extract, PHAS-1 substrate, read-out: IC50, tested in the Biological Assay
[11] = AlphaScreen, ATP 20 μM, read-out: IC50, tested in Alternative Enzyme Assay

| SMILES | GI50 ([1]; upper bounds) [nM] | IC50 [2, 5] [nM] | other results |
| --- | --- | --- | --- |
| COc1ccc(-c2ccc3c(N4CCOCC4)nc(N4CCOC[C@@H]4C)nc3n2)cc1CO [Comparative Example 1a, reference compound] |  |  | GI50 of Comparative Examples compared to the corresponding Examples ([1]; comparison in words): GI50 Comparative Example 1a>GI50 Example 11a; IC50 of Comparative Examples compared to the corresponding Examples ([2]; Biological Assay, comparison in words): IC50 Comparative Example 1a>IC50 Example 11a |
| C[C@H]1CCCCN1c1nc(N2CCOCC2)c2ccc(-c3ccc(Cl)cc3)nc2n1 [Example 1g] | < 300 | < 100 |  |
| C[C@@H]1CN(c2nc(N3CCOCC3)c3ccc(-c4ccco4)nc3n2)C[C@H](C)O1 [Example 1r] |  | < 1000 | GI50 [1]: 232 nM |
| COc1ccc(-c2ccc3c(N4CCOCC4)nc(N4C[C@@H](C)O[C@@H](C)C4)nc3n2)cc1CNC1CCC1 [Example 8a] | < 300 | < 100 |  |
| COc1ccc(-c2ccc3c(N4CCOCC4)nc(N4C[C@@H](C)O[C@@H](C)C4)nc3n2)cc1CNCC1CCCCC1O (stereo partly shown) [Example 8aa] |  | < 100 | GI50 [1]: < 1000 nM |
| COc1ccc(-c2ccc3c(N4CCOCC4)nc(N4C[C@@H](C)O[C@@H](C)C4)nc3n2)cc1CNCC1CCCCCC1O (stereo partly shown) [Example 8ab] | < 300 | < 100 |  |
| CCOC(=O)C1CCCCC1NCc1cc(-c2ccc3c(N4CCOCC4)nc(N4C[C@@H](C)O[C@@H](C)C4)nc3n2)ccc1OC (stereo partly shown) [Example 8ac] |  | < 100 | GI50 [1]: < 1000 nM |
| COc1ccc(-c2ccc3c(N4CCOCC4)nc(N4C[C@@H](C)O[C@@H](C)C4)nc3n2)cc1CNCCSCCO [Example 8ad] | < 300 | < 100 |  |
| COc1ccc(-c2ccc3c(N4CCOCC4)nc(N4C[C@@H](C)O[C@@H](C)C4)nc3n2)cc1CNCCSCc1ccc(CN(C)C)o1 [Example 8ae] | < 300 | < 1000 |  |
| C=CCOC(=O)[C@H](CC(C)C)NCc1cc(-c2ccc3c(N4CCOCC4)nc(N4C[C@@H](C)O[C@@H](C)C4)nc3n2)ccc1OC [Example 8af] | < 300 | < 1000 |  |
| COc1ccc(-c2ccc3c(N4CCOCC4)nc(N4C[C@@H](C)O[C@@H](C)C4)nc3n2)cc1CNC1CCCC(C)C1C (stereo partly shown) [Example 8ag] | < 300 | < 100 |  |
| COc1ccc(-c2ccc3c(N4CCOCC4)nc(N4C[C@@H](C)O[C@@H](C)C4)nc3n2)cc1CNCc1ccc(F)cc1 [Example 8ah] | < 300 | < 100 |  |
| COc1ccc(-c2ccc3c(N4CCOCC4)nc(N4C[C@@H](C)O[C@@H](C)C4)nc3n2)cc1CNCCC1CCCN1C (stereo partly shown) [Example 8ai] | < 300 | < 100 |  |
| COc1ccc(-c2ccc3c(N4CCOCC4)nc(N4C[C@@H](C)O[C@@H](C)C4)nc3n2)cc1CNCC1CCCO1 (stereo partly shown) [Example 8aj] | < 300 | < 100 |  |
| CCSCCNCc1cc(-c2ccc3c(N4CCOCC4)nc(N4C[C@@H](C)O[C@@H](C)C4)nc3n2)ccc1OC [Example 8ak] | < 300 | < 100 |  |
| COc1ccc(-c2ccc3c(N4CCOCC4)nc(N4C[C@@H](C)O[C@@H](C)C4)nc3n2)cc1CNc1cc[nH]n1 [Example 8al] | < 300 | < 100 |  |
| COc1ccc(-c2ccc3c(N4CCOCC4)nc(N4C[C@@H](C)O[C@@H](C)C4)nc3n2)cc1CNC(=S)N1CCCCC1 [Example 8am] | < 300 | < 1000 |  |
| COc1ccc(-c2ccc3c(N4CCOCC4)nc(N4C[C@@H](C)O[C@@H](C)C4)nc3n2)cc1CNCCc1cccs1 [Example 8an] | < 300 | < 100 |  |

| SMILES | GI50 ([1]; upper bounds) [nM] | IC50 [2, 5] [nM] | other results |
| --- | --- | --- | --- |
| COC(=O)[C@H](NCc1cc(-c2ccc3c(N4CCOCC4)nc(N4C[C@@H](C)O[C@@H](C)C4)nc3n2)ccc1OC)c1ccccc1 [Example 8ao] | < 300 | < 1000 |  |
| COc1ccc(-c2ccc3c(N4CCOCC4)nc(N4C[C@@H](C)O[C@@H](C)C4)nc3n2)cc1CNCc1cccc(CN)c1 [Example 8ap] | < 300 | < 100 |  |
| COc1ccc(-c2ccc3c(N4CCOCC4)nc(N4C[C@@H](C)O[C@@H](C)C4)nc3n2)cc1CNC(C)CO (stereo partly shown) [Example 8aq] | < 300 | < 100 |  |
| COc1ccc(-c2ccc3c(N4CCOCC4)nc(N4C[C@@H](C)O[C@@H](C)C4)nc3n2)cc1CNC(Cc1ccc(O)cc1)C(=O)O (stereo partly shown) [Example 8ar] | < 300 | < 100 |  |
| COCc1cccc(-c2nc(N3CCOCC3)c3ccc(-c4ccc(OC)c(CO)c4)nc3n2)c1 [Example 9h] |  |  | IC50 [3, 6]: < 300 nM; IC50 [4, 7]: < 2500 nM |
| COc1ccc(-c2ccc3c(N4CCOCC4)nc(-c4cccc(O)c4)nc3n2)cc1CO [Example 9i] |  |  | IC50 [3, 8]: < 10000 nM; IC50 [3, 6]: < 300 nM; IC50 [4, 7]: < 2500 nM |
| COc1ccc(-c2ccc3c(N4CCOCC4)nc(-c4cccc(C#N)c4)nc3n2)cc1CO [Example 9j] |  |  | IC50 [3, 8]: < 10000 nM; IC50 [3, 6]: < 300 nM; IC50 [4, 7]: < 25000 nM |
| COc1ccc(-c2ccc3c(N4CCOCC4)nc(-c4cccc(C(N)=O)c4)nc3n2)cc1CO [Example 9k] |  |  | IC50 [3, 6]: < 300 nM; IC50 [4, 7]: < 2500 nM |
| COc1ccc(-c2ccc3c(N4CCOCC4)nc(-c4cccc(N)c4)nc3n2)cc1CO [Example 9l] |  |  | IC50 [3, 6]: < 300 nM; IC50 [4, 7]: < 2500 nM |
| OCc1cccc(-c2nc(N3CCOCC3)c3ccc(-c4ccc(Cl)cc4)nc3n2)c1 [Example 9m] |  |  | IC50 [3, 8]: < 1000 nM; IC50 [4, 7]: < 2500 nM |
| COc1ccc(-c2ccc3c(N4CCOCC4)nc(-c4cccc(CN)c4)nc3n2)cc1CO [Example 9n] |  |  | IC50 [3, 8]: < 1000 nM; IC50 [4, 7]: < 2500 nM |
| COc1ccc(-c2ccc3c(N4CCOCC4)nc(-c4cccc(C(F)(F)F)c4)nc3n2)cc1CO [Example 9r] |  |  | IC50 [3, 8]: < 1000 nM; IC50 [4, 7]: < 25000 nM |
| C[C@H]1COCCN1c1nc(N2CCOC[C@@H]2C)c2ccc(-c3ccc(F)c(C#N)c3)nc2n1 [Example 11av, 5-[2,4-bis-((S)-3-methyl-morpholin-4-yl)-pyrido[2,3-d]pyrimidin-7-yl]-2-fluoro-benzonitrile] |  |  | IC50 [3, 6]: < 300 nM; IC50 [4, 9]: < 300 nM |
| COc1ccc(-c2ccc3c(N4CCOC[C@@H]4C)nc(N4C[C@@H](C)O[C@@H](C)C4)nc3n2)cc1CO [Example 11b] |  |  | IC50 [3, 6]: < 100 nM; IC50 [2, 10]: 1.85 nM; IC50 [4, 9]: < 100 nM |
| CCC1CCCCN1c1nc(N2CCOC[C@@H]2C)c2ccc(-c3ccc(OC)c(CO)c3)nc2n1 (stereo partly shown) [Example 11c] |  |  | IC50 [3, 6]: < 300 nM; IC50 [2, 10]: 1.84 nM; IC50 [4, 9]: < 100 nM |
| C[C@H]1COCCN1c1nc(N2CCOC[C@@H]2C)c2ccc(-c3cccc(Cl)n3)nc2n1 [Example 11v] |  |  | IC50 [3, 11]: 180 nM; IC50 [3, 6]: < 300 nM; IC50 ([4]; compounds of Formula I(B), upper bounds, read-out: IC50 values against mTOR (phospho-Ser473 Akt assay)): < 11000 nM |
| COc1ccc(-c2ccc3c(N4CCOC[C@@H]4C)nc(-c4cccc(N)c4)nc3n2)cc1CO [Example 29f] |  |  | IC50 [3, 11]: 96 nM; IC50 [3, 6]: < 100 nM; IC50 [4, 9]: < 300 nM |
